Measured values: PMC10808720 (Frontiers in Pharmacology, 2024)

Experiments:
Format in all cases: cell-based, human adenovirus (HAdV5)
[1] = tested on: wild-type HAdV5; experiment: HAdV DNA quantification by qPCR; conditions: 10-fold IC50; A549; 24 h; vs DMSO control
Experimental: For DNA quantification, A549 cells (1.5 × 10^5 cells/well in a 24-well plate) were incubated for 24 h in 500 μL of complete DMEM and were infected with wild-type HAdV5 (MOI 100 vp/cell) after observing more than 90% of confluency. Infected cells were incubated for 24 h at 37°C in 500 μL of either complete DMEM containing 10-fold IC50 concentration of the compounds obtained in the plaque assay or the same volume of DMSO (positive control). All samples were prepared in duplicate. After 24 h of incubation at 37°C, DNA was purified from the cell lysate with the E.Z.N.A.® Tissue DNA Kit (Omega Bio-tek, Norcross, GA) following the manufacturer’s instructions. PCR conditions, primers, and probes were as described by [Henke-Gendo et al. (2012)]. Human glyceraldehyde-3-phosphate dehydrogenase (GAPDH) gene was used as an internal control. GAPDH oligonucleotide sequences and conditions were as previously described by [Rivera et al. (2004)].
For quantification, gene fragments from hexons, and GAPDH were cloned into the pGEM-T Easy vector (Promega) and known concentrations of the template were used to generate a standard curve in parallel for each experiment, as previously reported ([Sanchez-Cespedes et al., 2016]). All assays were performed in thermal cycler LightCycler® 96 System (Roche).

[2] = tested on: HAdV5; experiment: HAdV-mediated endosome disruption (α-sarcin co-delivery, HPG incorporation)
Experimental: A549 cells (2 × 10^4 cells/well) were incubated in DMEM without cysteine or methionine supplemented with 10% dialyzed FBS [DMEM(−)] in black 96-well plates for 1 h prior to infection. Three-fold serial dilutions (0.45 ng–1,000 ng) of HAdV5, or AdV2ts1 were preincubated with cells in the presence of 10-fold IC50 concentration of the compounds obtained in the plaque assay or the same volume of DMSO for positive control for 1 h. The medium was then removed and replaced with 50 μL DMEM(−) containing 0.1 mg/ml α-sarcin (Santa Cruz Biotechnology, Dallas, Texas, USA) and drug mixtures. After 1 h at 37°C, the Click-iT L-homopropargylglycine (HPG) Alexa Fluor 488 Protein Synthesis Assay Kits (Invitrogen) was used to analyse protein synthesis according to the manufacturer’s instructions. The incorporation of the amino acid analogue of methionine HPG containing Alexa Fluor 488 azide was measured using a Typhoon 9410 imager (GE Healthcare Life Sciences) and calculated by subtracting the background level of the control well containing HPG and α-sarcin but not the virus (100% incorporation).

[3] = tested on: wild-type HAdV5; experiment: HAdV/tubulin colocalization (confocal microscopy); conditions: 0.05 μM; 90 min after synchronized infection; A549
Experimental: The coverslips were previously washed with acetone, distilled water and absolute ethanol sequentially, and washed with 1x PBS, and treated with poly-L-lysine (Merck, Darmstadt, Germany) for 1 h, and washed again twice with 1x PBS. […] The infection was synchronized for 1 h on ice, excess virus was removed, and the cells were incubated for 90 min at 37°C and 5% CO2. Finally, the cells were fixed with methanol/acetone 50% for 10 min at −20°C whereupon nonspecific unions were blocked with PBS/BSA 10% for 1 h at room temperature. The cells were then incubated with hexon protein mouse monoclonal IgG (DSHB, Iowa City, USA) and anti-gamma-tubulin antibody marked by Alexa Fluor® 647 (Abcam, Cambridge, UK) for 60 min at room temperature. After rinsing with 1x PBS, the cells were incubated with Alexa Fluor 488 goat anti-mouse IgG (Thermo Fisher Scientific, MA, USA) for 20 min at room temperature, and DAPI (Merck) was added for 5 min to stain the nucleus. Finally, coverslips were fixed on the slides with a mounting medium prepared from one part of 10x PBS and 9 parts of glycerol and stored in the dark overnight at 4°C. […] The Z-series was analyzed by first determining the region of interest and then measuring the fluorescence signal using ImageJ.

C=C(C)[C@H]1Cc2c(ccc3c2O[C@@H]2COc4cc(OC)c(OC)cc4[C@@H]2C3=O)O1 [Rotenone, (2R,6aS,12aS)-8,9-dimethoxy-2-(prop-1-en-2-yl)-1,2,12,12a-tetrahydrochromeno[3,4-b]furo[2,3-h]chromen-6-(6aH)-one]
HAdV DNA copy number (de novo synthesis) [1]: significant decrease | HPG incorporation ([2]; compared with a control without α-sarcin, 10-fold IC50, independent of virus concentration): approximately 30% | attenuation of HAdV-mediated endosomolysis ([2]; α-sarcin assay): did not attenuate | colocalization of HAdV particles with the tubulin [3]: lower level of colocalization
